Test results taken from patent US12162888B2, “Carboxamides as ubiquitin-specific protease inhibitors” (Valo Early Discovery, Inc., priority 2018, dated 2024).

These compounds were tested against T1, USP28 (USP28-5(1-1077)-TEV-6*His; LifeSensors) (Homo sapiens, UniProt Q96RU2) (assay: Ubiquitin-Rhodamine 110 Assay for USP28 Activity, Example A-1(b)).
T1 construct: construct USP28 (USP28-5(1-1077)-TEV-6*His; LifeSensors); TEV cleavage site (C); 6xHis (C); purchased LifeSensors
T1 sequence (Q96RU2 1-1077): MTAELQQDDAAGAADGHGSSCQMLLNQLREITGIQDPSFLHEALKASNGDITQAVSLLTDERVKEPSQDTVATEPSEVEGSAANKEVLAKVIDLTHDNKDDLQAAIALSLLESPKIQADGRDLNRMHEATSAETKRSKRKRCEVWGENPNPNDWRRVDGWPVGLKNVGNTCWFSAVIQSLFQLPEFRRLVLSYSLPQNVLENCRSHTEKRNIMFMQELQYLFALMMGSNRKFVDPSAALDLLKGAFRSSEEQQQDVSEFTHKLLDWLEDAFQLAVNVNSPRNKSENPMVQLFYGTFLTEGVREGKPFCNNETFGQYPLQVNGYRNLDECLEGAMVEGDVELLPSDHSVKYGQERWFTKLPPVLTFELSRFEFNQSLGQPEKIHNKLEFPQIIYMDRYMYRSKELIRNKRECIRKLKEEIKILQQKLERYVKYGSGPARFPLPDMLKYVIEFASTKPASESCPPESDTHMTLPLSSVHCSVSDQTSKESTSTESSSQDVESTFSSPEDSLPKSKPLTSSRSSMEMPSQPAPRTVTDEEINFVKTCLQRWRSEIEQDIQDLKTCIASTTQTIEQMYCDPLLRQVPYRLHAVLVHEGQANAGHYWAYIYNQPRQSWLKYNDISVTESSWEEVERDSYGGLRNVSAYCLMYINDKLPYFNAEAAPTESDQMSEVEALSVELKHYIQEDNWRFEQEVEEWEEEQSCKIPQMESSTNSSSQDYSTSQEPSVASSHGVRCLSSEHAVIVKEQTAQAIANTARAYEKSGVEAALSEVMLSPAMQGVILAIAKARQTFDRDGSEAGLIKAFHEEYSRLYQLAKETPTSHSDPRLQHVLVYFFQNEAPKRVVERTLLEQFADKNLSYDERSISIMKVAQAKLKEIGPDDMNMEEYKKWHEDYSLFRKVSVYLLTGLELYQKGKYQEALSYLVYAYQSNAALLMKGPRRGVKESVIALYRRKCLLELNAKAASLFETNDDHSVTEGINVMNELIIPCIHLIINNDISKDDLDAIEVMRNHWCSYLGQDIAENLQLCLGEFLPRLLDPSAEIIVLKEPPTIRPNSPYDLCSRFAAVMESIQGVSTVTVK
Format: biochemical
Procedure: Example A-1(b): Biochemical Assay: Ubiquitin-Rhodamine 110 Assay for USP28 Activity
Each assay was performed in a final volume of 20 μL in assay buffer containing 20 mM Tris-HCl (pH 8.0, (1M Tris-HCl, pH 8.0 solution; Corning 46-031-CM)), 2 mM CaCl2 (1M Calcium Chloride solution; Sigma #21114) 2 mM BME (2-Mercaptoethanol; Sigma 63689-25ML-F), 0.01% Prionex (0.22 μM filtered, Sigma #G-0411), and 0.01% Triton X-100. Stock compound solutions were stored at −20° C. as 10 mM in DMSO. Up to 1 month prior to the assay, 2 mM test compounds were pre-dispensed into assay plates (Black, low volume; Corning #3820) and frozen at −20° C. Prestamped assay plates were allowed to come to room temperature on the day of the assay. For the screen, 100 nL of 2 mM was pre-dispensed for a final screening concentration of 10 μM (DMSO(fc)=0.5%). […] Plates were incubated stacked for 90 minutes at room temperature before fluorescence was read on the Envision (Excitation at 485 nm and Emission at 535 nm; Perkin Elmer) or on the PheraSTAR (Excitation at 485 nm and Emission at 535 nm; BMG Labtech).
For follow-up studies, each assay was performed in a final volume of 15 μL in assay buffer containing 20 mM Tris-HCl (pH 8.0, (1M Tris-HCl, pH 8.0 solution; Corning 46-031-CM)), 3 mM BME (2-Mercaptoethanol; Sigma 63689-25ML-F), 0.03% BGG (0.22 μM filtered, Sigma, G7516-25G), and 0.01% Triton X-100 (Sigma, T9284-10L). Nanoliter quantities of either an 8-point or 10-point, 3-fold serial dilution in DMSO was pre-dispensed into assay plates (Perkin Elmer, ProxiPlate-384 F Plus, #) for a final test concentration of either 25 μM to 11 nM or 25 μM to 1.3 nM, respectively. Enzyme USP28, construct USP28 (USP28-5(1-1077)-TEV-6*His; LifeSensors) concentration and incubation times were optimized for the maximal signal-to-background while maintaining initial velocity conditions at a fixed substrate concentration. The final concentration of the enzyme in the assay was […]. Final substrate (Ub-Rh110; Ubiquitin-Rhodamine 110, R&D Systems #U-555) concentration was 25 nM with [Ub-Rh110]<<Km. 5 μL of 2× enzyme was added to assay plates (pre-stamped with compound) preincubated with USP28 for 30 minutes and then 5 μL of 2× Ub-Rh110 was added to assay plates. Plates were incubated stacked for 20 minutes at room temperature before 5 μL of stop solution was added (final concentration of 10 mM citric acid (Sigma, 251275-500G)). Fluorescence was read on the Envision (Excitation at 485 nm and Emission at 535 nm; Perkin Elmer) or on the PheraSTAR (Excitation at 485 nm and Emission at 535 nm; BMG Labtech).
For assay formats Example A-1(a), A-1(b), and A-2, data were reported as percent inhibition compared with control wells based on the following equation: % inh=1−((FLU−AveLow)/(AveHigh−AveLow)) where FLU=measured Fluorescence, AveLow=average Fluorescence of no enzyme control (n=16), and AveHighh=average Fluorescence of DMSO control (n=16). IC50 values were determined by curve fitting of the standard 4 parameter logistic fitting algorithm included in the Activity Base software package: IDBS XE Designer Model 205. Data is fitted using the Levenburg Marquardt algorithm.

Structure (SMILES)	USP28 A-1(b) IC50 range
Cc1cnc2c(N)c(C(=O)N[C@H]3CCc4cc(N5C[C@H]6C[C@@H]5CN6)ccc4C3)sc2n1 (single isomer, unassigned) [Example 11-31]	++ (“++”: 0.2-2 μM)
Cc1ccc2c(N)c(C(=O)N[C@H]3COc4cc(N5CCNCC5)ccc4[C@H]3C)sc2n1 (single isomer, unassigned) [Example 11-15]	+ (“+”L>2 μM)
Cc1nc2sc(C(=O)N[C@H]3CCc4cc(N5CCNCC5)ccc4C3)c(N)c2s1 (single isomer, unassigned) [Example 11-33]	+ (“+”L>2 μM)
Cc1ccc2c(N)c(C(=O)N[C@@H]3CCc4c(C#N)c(N5CCNCC5)cc(F)c4C3)sc2n1 (single isomer, unassigned) [Example 14-9]	+ (“+”L>2 μM)
Cc1ccc2c(N)c(C(=O)N[C@@H]3CCc4cc(N5CC6CNCC(C5)O6)cc(F)c4C3)sc2n1 (single isomer, unassigned) [Example 11-40]	++++ (“++++”: 0.001-0.05 μM)
CN[C@H]1CCN(c2ccc3c(c2)CC[C@@H](NC(=O)c2sc4nc(C)cnc4c2N)C3)C1 (single isomer, unassigned) [Example 11-26]	+ (“+”L>2 μM)
Cc1ccc2c(N)c(C(=O)N[C@@H]3COc4cc(N5CCNCC5)ccc4[C@@H]3C)sc2n1 (single isomer, unassigned) [Example 11-18]	+ (“+”L>2 μM)
CN[C@H]1CCN(c2ccc3c(c2)CC[C@H](NC(=O)c2sc4nc(C)cnc4c2N)C3)C1 (single isomer, unassigned) [Example 11-25]	++ (“++”: 0.2-2 μM)
Cc1nc2sc(C(=O)N[C@@H]3CCc4cc(N5CCNCC5)ccc4C3)c(N)c2s1 (single isomer, unassigned) [Example 11-34]	++ (“++”: 0.2-2 μM)
Cc1cnc2c(N)c(C(=O)N[C@@H]3CCc4cc(N5C[C@@H]6C[C@H]5CN6)ccc4C3)sc2n1 (single isomer, unassigned) [Example 11-30]	++ (“++”: 0.2-2 μM)
Cc1ccc2c(N)c(C(=O)N[C@H]3COc4cc(N5CCNCC5)ccc4[C@@H]3C)sc2n1 (single isomer, unassigned) [Example 11-17]	+ (“+”L>2 μM)
Cc1cnc2c(N)c(C(=O)N[C@@H]3CCc4cc(N5CCNCC5)ccc4C3)sc2n1 (single isomer, unassigned) [Example 11-20]	+ (“+”L>2 μM)
Cc1ccc2c(N)c(C(=O)N[C@H]3COc4cc(N5CCNCC5)ccc4[C@@H]3C)sc2n1 (single isomer, unassigned) [Example 11-16]	+ (“+”L>2 μM)
CN[C@@H]1CCN(c2ccc3c(c2)CC[C@H](NC(=O)c2sc4nc(C)cnc4c2N)C3)C1 (single isomer, unassigned) [Example 11-27]	++ (“++”: 0.2-2 μM)
Cc1cnc2c(N)c(C(=O)N[C@H]3CCc4cc(N5CCNCC5)cc(F)c4C3)sc2n1 (single isomer, unassigned) [Example 11-38]	+++ (“+++”: 0.05-0.2 μM)
Cc1cnc2c(N)c(C(=O)N[C@@H]3CCc4cc(N5CCNCC5)c(F)cc4C3)sc2n1 (single isomer, unassigned) [Example 21-11]	++ (“++”: 0.2-2 μM)
Cc1cnc2c(N)c(C(=O)N[C@H]3CCc4c(ccc(N5CCNCC5)c4F)C3)sc2n1 (single isomer, unassigned) [Example 21-10]	+ (“+”L>2 μM)
CN[C@@H]1CCN(c2ccc3c(c2)CC[C@@H](NC(=O)c2sc4nc(C)cnc4c2N)C3)C1 (single isomer, unassigned) [Example 11-28]	+ (“+”L>2 μM)
Cc1cnc2c(N)c(C(=O)N[C@H]3CCc4cc(N5CCNCC5)ccc4C3)sc2n1 (single isomer, unassigned) [Example 11-19]	++ (“++”: 0.2-2 μM)
Cc1ccc2c(N)c(C(=O)N[C@H]3CCc4c(C#N)c(N5CCNCC5)cc(F)c4C3)sc2n1 (single isomer, unassigned) [Example 14-10]	+++ (“+++”: 0.05-0.2 μM)
Cc1cnc2c(N)c(C(=O)N[C@@H]3CCc4cc(N5C[C@H]6C[C@@H]5CN6)ccc4C3)sc2n1 (single isomer, unassigned) [Example 11-32]	++ (“++”: 0.2-2 μM)
Cc1ccc2c(N)c(C(=O)N[C@H]3CCc4cc(N5CC6CNCC(C5)O6)cc(F)c4C3)sc2n1 (single isomer, unassigned) [Example 11-39]	++ (“++”: 0.2-2 μM)
Cc1cnc2c(N)c(C(=O)N[C@H]3CCc4cc(N5CCNCC5)c(F)cc4C3)sc2n1 (single isomer, unassigned) [Example 21-12]	++++ (“++++”: 0.001-0.05 μM)
Cc1cnc2c(N)c(C(=O)N[C@@H]3CCc4cc(N5CCNCC5)cc(F)c4C3)sc2n1 (single isomer, unassigned) [Example 11-37]	+ (“+”L>2 μM)
Cc1cnc2c(N)c(C(=O)N[C@@H]3CCc4c(ccc(N5CCNCC5)c4F)C3)sc2n1 (single isomer, unassigned) [Example 21-9]	++ (“++”: 0.2-2 μM)
Cc1ccc2c(N)c(C(=O)N[C@H]3CCc4cc(N5CCNCC5)ccc4C3)sc2n1 (single isomer, unassigned) [Example 11-21]	++ (“++”: 0.2-2 μM)
Cc1ccc2c(N)c(C(=O)N[C@@H]3CCc4cc(N5CCNCC5)ccc4C3)sc2n1 (single isomer, unassigned) [Example 11-22]	++ (“++”: 0.2-2 μM)
Cc1cnc2c(N)c(C(=O)N[C@H]3CCc4cc(N5C[C@@H]6C[C@H]5CN6)ccc4C3)sc2n1 (single isomer, unassigned) [Example 11-29]	++ (“++”: 0.2-2 μM)
